The Deep4Chem optical property database
Blank lines part the entries; values can stand above or below the compound they belong to.

Assay: solvent given as SMILES

- emission maximum (in C1COCCO1): 510 nm
SMILES: COC(=O)c1ccc(/C=C2\N=C(c3ccc([N+](=O)[O-])cc3)NC2=O)cc1

- emission maximum (in CCO): 569 nm
- emission maximum (in O): 578 nm
SMILES: CN(C)c1ccc2c(-c3ccc(C(=O)[O-])cc3C(=O)[O-])c3ccc(=[N+](C)C)cc-3oc2c1

- emission maximum (in ClC(Cl)Cl): 518.49 nm
SMILES: COc1ccc(O[B-]2(Oc3ccc(OC)cc3)n3c(C)cc(C)c3C(c3ccc(I)cc3)=C3C(C)=CC(C)=[N+]32)cc1

SMILES: CC(=O)c1c2c(cc3cc(N(C)C)ccc13)CCC2
- emission maximum (in C1CCCCC1): 445 nm
- emission maximum (in C1CCOC1): 505 nm
- emission maximum (in C1COCCO1): 495 nm
- emission maximum (in CC#N): 545 nm
- emission maximum (in CCO): 605 nm
- emission maximum (in CS(C)=O): 558 nm
- emission maximum (in Cc1ccccc1): 481 nm
- emission maximum (in ClC(Cl)Cl): 511 nm
- emission maximum (in ClCCl): 509 nm

- emission maximum (in CC#N): 496 nm
SMILES: Oc1ccc2ccccc2c1/C=N/c1ccccc1/N=C/c1c(O)ccc2ccccc12

- emission maximum (in CC#N): 424 nm
SMILES: Cc1cc2c(ccc3c(C)[n+](C)c(C)cc32)c(C)[n+]1C

- emission maximum (in CC#N): 561 nm
- emission maximum (in CCCCCC): 525 nm
- emission maximum (in CCO): 596 nm
- emission maximum (in CO): 611 nm
- emission maximum (in ClCCl): 561 nm
SMILES: CCCCCC(=O)c1c2c(c(C(=O)CCCCC)c3c1OC1(CCCC1)O3)OC1(CCCC1)O2

- emission maximum (in ClCCl): 368 nm
SMILES: CC(C)(C)c1ccc2c(c1)c1cc(C(C)(C)C)ccc1n2-c1cccs1

- emission maximum (in ClCCl): 460 nm
SMILES: CCN(CC)c1ccc2cc(C#N)c(=O)oc2c1

- emission maximum (in C1CCCCC1): 344 nm
SMILES: COC(=O)c1noc(-c2ccccc2)c1Br

- emission maximum (in CC#N): 490 nm
SMILES: c1ccc(-n2c(-c3ccc(-n4c5ccccc5c5ccccc54)cc3)nc3nccnc32)cc1

SMILES: CCOC(=O)COc1ccc(/C=C/C2=C3c4ccccc4C(c4[nH]c(C)cc4C)=[N+]3[B-](F)(F)n3c(C)cc(C)c32)cc1
- emission maximum (in C1CCOC1): 684 nm
- emission maximum (in CC#N): 681 nm
- emission maximum (in CCCCCC): 679 nm
- emission maximum (in CO): 680 nm
- emission maximum (in Cc1ccccc1): 690 nm
- emission maximum (in ClCCl): 687 nm

SMILES: Cc1nnc(-c2cc(-n3c4ccccc4c4ccccc43)c(-n3c4ccccc4c4ccccc43)cc2-c2nnc(C)o2)o1
- emission maximum (in CC#N): 504.62 nm
- emission maximum (in Cc1ccccc1): 453 nm
- emission maximum (in ClCCl): 485.51 nm

- emission maximum (in CCCCCC): 615 nm
- emission maximum (in CCCCCCCCO): 623 nm
- emission maximum (in CCOC(C)=O): 618 nm
- emission maximum (in CN(C)C=O): 624 nm
- emission maximum (in ClCCl): 629 nm
SMILES: CC1=CC(C)=[N+]2C1=Cc1c3ccccc3c(C#Cc3ccccc3)n1[B-]2(F)F

- emission maximum (in CCO): 415 nm
SMILES: COC(=O)C(NC(=O)CCNc1cccc2ccccc12)C(C)C (stereo unspecified)

SMILES: CCN(CC)c1ccc(-c2nc3c(c4c2-c2ccccc2CC4)-c2ccccc2CC3)cc1
- emission maximum (in C1CCOC1): 452 nm
- emission maximum (in CC#N): 463 nm
- emission maximum (in CCCCCC): 425 nm
- emission maximum (in CCOC(C)=O): 449 nm
- emission maximum (in CO): 461 nm
- emission maximum (in CS(C)=O): 470 nm
- emission maximum (in Cc1ccccc1): 437 nm
- emission maximum (in ClCCl): 449 nm

- emission maximum (in ClCCl): 568 nm
SMILES: c1cc2c3c(c1)ccc1[n+]3[B-]3(Oc4cccc5ccc6[n+](c45)[B-](O2)(O3)n2c-6cc3c4ccccc4c4ccccc4c32)n2c-1cc1c3ccccc3c3ccccc3c12

SMILES: Cc1ccc2c(c1)C1(c3ccccc3-c3ccccc31)c1cc(C)ccc1N2c1ccc2c(c1)Sc1ccccc1P2(=O)c1ccccc1 (stereo unspecified)
- emission maximum (in Cc1ccccc1): 454.61 nm

- emission maximum (in C1CCCCC1): 333.89 nm
SMILES: Cc1ccc(-c2ccccc2)cc1

- emission maximum (in CCO): 567 nm
- emission maximum (in ClCCl): 565 nm
- emission maximum (in O): 585 nm
SMILES: O=Cc1ccc(-c2cccc(-c3nc4ccccc4s3)c2O)o1

- emission maximum (in ClCCl): 413 nm
SMILES: CCCCc1cc2c3c(c1)-c1ccccc1B(c1c(C)cc(C)cc1C)N3B(c1c(C)cc(C)cc1C)c1ccccc1-2

- emission maximum (in CCO): 470 nm
- emission maximum (in ClCCl): 460 nm
SMILES: CCN(CC)c1ccc2cc(C#N)/c(=N\C(=O)C(C)C)oc2c1

- emission maximum (in CC#N): 460 nm
SMILES: CC(C)(C)Nc1oc(C=Cc2ccccc2)c(C(=O)OC(C)(C)C)c1C(=O)OC(C)(C)C

- emission maximum (in CO): 586 nm
SMILES: CCN(C)c1ccc(C2=C3C(C)=CC(/C=C/c4ccc(OCCCN=[N+]=[N-])cc4)=[N+]3[B-](F)(F)n3c(C)cc(C)c32)cc1

- emission maximum (in C1COCCO1): 386 nm
- emission maximum (in CC#N): 388 nm
- emission maximum (in CO): 412 nm
- emission maximum (in ClCCl): 379 nm
- emission maximum (in O): 420 nm
SMILES: COC(=O)c1nc2cnc(N)nc2n1Cc1ccccc1

- emission maximum (in CO): 535 nm
- emission maximum (in CS(C)=O): 510 nm
- emission maximum (in ClC(Cl)Cl): 490 nm
- emission maximum (in c1ccccc1): 480 nm
SMILES: CCC1=C(C)C(=O)n2c1cc1c(C)c(CCC(=O)O)c(C)n1c2=O

- emission maximum (in C1CCOC1): 550 nm
SMILES: CCCCCOc1cc2oc(=O)c3c4ccc(N)cc4c4ccc5cccc6c(c1)c2c3c4c56

- emission maximum (in ClC(Cl)Cl): 651 nm
SMILES: CCCCCCCCN1C(=O)c2ccc3c4c(-c5ccc(-n6c7ccccc7c7ccccc76)cc5)cc5c6c(ccc(c7c(-c8ccc(-n9c%10ccccc%10c%10ccccc%109)cc8)cc(c2c37)C1=O)c64)C(=O)N(CCCCCCCC)C5=O

SMILES: CCN(CC)c1ccc2nc3c4ccccc4c(=O)cc-3oc2c1
- emission maximum (in C1COCCO1): 582 nm
- emission maximum (in CC#N): 620 nm
- emission maximum (in CC(C)=O): 614 nm
- emission maximum (in CCCCCC): 532 nm
- emission maximum (in CCO): 638 nm
- emission maximum (in CCOC(C)=O): 594 nm
- emission maximum (in CO): 643 nm
- emission maximum (in CS(C)=O): 635 nm
- emission maximum (in Cc1ccccc1): 572 nm
- emission maximum (in ClCCl): 608 nm

- emission maximum (in ClCCl): 748 nm
SMILES: CN(C)c1ccc(C2=C3C=C(c4ccc(C=C(C#N)C#N)cc4)S[C@]34c3ccccc3[C@H]2c2ccccc24)cc1

- emission maximum (in CO): 582 nm
SMILES: C#CCOc1ccc(/C=C/C2=[N+]3C(=C(c4ccc(N5CCCCC5)cc4)c4c(C)cc(C)n4[B-]3(F)F)C(C)=C2)cc1

SMILES: CN(C)c1ccc2cc3c(cc2c1)OCCN=C3
- emission maximum (in C1CCOC1): 425 nm
- emission maximum (in CC#N): 562 nm
- emission maximum (in CC(C)O): 447 nm
- emission maximum (in CCOC(C)=O): 426 nm
- emission maximum (in CN(C)C=O): 442 nm
- emission maximum (in CS(C)=O): 447 nm
- emission maximum (in Cc1ccccc1): 415 nm
- emission maximum (in ClCCl): 532 nm
- emission maximum (in O): 559 nm

- emission maximum (in ClCCl): 508 nm
SMILES: O=c1cc(-c2ccccc2)oc(-c2ccc(-c3nc4ccccn4c3NC3CCCCC3)cc2)c1

- emission maximum (in C1CCCCC1): 645 nm
- emission maximum (in CCOC(C)=O): 664 nm
SMILES: CC1=[N+]2C(=C(c3ccc(C(=O)c4ccccc4)cc3)c3ccc(C)n3[B-]2(F)F)C=C1c1cc2n(c1)[B-](F)(F)[N+]1=CC=CC1=C2c1c(C)cc(C)cc1C

SMILES: COc1cccc(OC)c1C1=C2C(C)=CC(C)=[N+]2[B-](F)(F)n2c(C)cc(C)c21
- emission maximum (in C1CCOC1): 520 nm
- emission maximum (in CC#N): 513 nm
- emission maximum (in CC(=O)C(C)(C)C): 520 nm
- emission maximum (in CC(C)=O): 516 nm
- emission maximum (in CCCCCC): 519 nm
- emission maximum (in CCOC(C)=O): 520 nm
- emission maximum (in CO): 518 nm

- emission maximum (in ClC(Cl)Cl): 631 nm
SMILES: CCCN1c2ccccc2Sc2cc(/C=C\c3cc(=O)oc4cc(C)ccc34)ccc21

- emission maximum (in ClCCl): 509 nm
SMILES: CCN(CC)c1ccc2c(c1)oc(=O)c1cc3c(-c4ccccc4)nn(-c4ccccc4)c3nc12

SMILES: COc1ccc(/C=C/c2ccccc2)cc1
- emission maximum (in C1CCCCC1): 364 nm
- emission maximum (in CC#N): 374 nm
- emission maximum (in CC(C)O): 365 nm
- emission maximum (in CCCCOCCCC): 367 nm
- emission maximum (in CCOC(C)=O): 366 nm
- emission maximum (in CCOCC): 366 nm

- emission maximum (in C1CCCCC1): 373 nm
SMILES: CCn1c2ccccc2c2ccc(C#N)cc21

- emission maximum (in CO): 738 nm
- emission maximum (in O): 736 nm
SMILES: CN(C)c1ccc2c(c1)[Si](C)(C)C1=CC(=[N+](C)C)C=CC1=C2C#Cc1ccccc1
